Experimental data published in US9611277B2 (Janssen Pharmaceutica NV, priority 2013, dated 2017).
Where two headings read alike, the source gives them in different places.

Tests used:
human orexin 1 receptor = human orexin 1 receptor (Homo sapiens, UniProt O43613); assay: Human orexin 1 receptor radioligand binding; details: read-out: hOX1 Ki
Description: (§1) Data are analyzed using pc-Sandy macro and graphed on Graphpad Prism 5. For analysis, each concentration point is averaged from triplicate values and the averaged values are plotted on Graphpad Prism. The IC50 was determined by applying the following equation (GraphPad Prism 5.0, SanDiego) for one site competition where X=log (concentration) and Y=specific binding. Top denotes the total [^3H]-(1-(5-(2-fluoro-phenyl)-2-methyl-thiazol-4-yl)-1-((S)-2-(5-phenyl-(1,3,4)oxadiazol-2-ylmethyl)-pyrrolidin-1-yl)-methanone) binding, bottom denotes the nonspecific [^3H]-(1-(5-(2-fluoro-phenyl)-2-methyl-thiazol-4-yl)-1-((S)-2-(5-phenyl-(1,3,4)oxadiazol-2-ylmethyl)-pyrrolidin-1-yl)-methanone) binding. Graphpad Prism calculates Ki value from IC50 and the pre-determined Kd values for [^3H]-(1-(5-(2-fluoro-phenyl)-2-methyl-thiazol-4-yl)-1-((S)-2-(5-phenyl-(1,3,4)oxadiazol-2-ylmethyl)-pyrrolidin-1-yl)-methanone) and [3H]-EMPA. The Ki for each compound is then uploaded into 3DX. Each run comprises individual compounds in triplicate. The data in Table 1 and Table 2 represent averages from between 2-20 runs
(§2) Rat and Human Orexin 1 Receptor Radioligand Binding Studies
(§3) After centrifugation (2K×G, 5 min at 4° C.), the supernatant was aspirated and the pellets frozen and stored at −80° C. […] Each cell pellet from a 15 cm plate was resuspended in 10 mL, stored on ice, and homogenized for 45 sec prior to addition to the reactions. […] The final concentration of DMSO in the reactions is equal to or less than 0.1%. Total and nonspecific binding was determined in the absence and presence of 10 μM almorexant. The total volume of each reaction is 200 μL (20 μL of diluted compounds, 80 μL of [^3H]-(1-(5-(2-fluoro-phenyl)-2-methyl-thiazol-4-yl)-1-((S)-2-(5-phenyl-(1,3,4)oxadiazol-2-ylmethyl)-pyrrolidin-1-yl)-methanone) diluted in PBS and 100 μL of the cell suspension). […] The plates were washed 3 times by aspirating 30 ml PBS through the plates. Plates were dried in 55° C. oven for 60 min, scintillation fluid was added, and the radioactivity was counted on a Topcount (Packard).

human orexin 2 receptor = human orexin 2 receptor (Homo sapiens (Human), UniProt O43614); assay: Human orexin 2 receptor radioligand binding; details: read-out: hOX2 Ki
Sequence of human orexin 2 receptor (O43614 whole entry): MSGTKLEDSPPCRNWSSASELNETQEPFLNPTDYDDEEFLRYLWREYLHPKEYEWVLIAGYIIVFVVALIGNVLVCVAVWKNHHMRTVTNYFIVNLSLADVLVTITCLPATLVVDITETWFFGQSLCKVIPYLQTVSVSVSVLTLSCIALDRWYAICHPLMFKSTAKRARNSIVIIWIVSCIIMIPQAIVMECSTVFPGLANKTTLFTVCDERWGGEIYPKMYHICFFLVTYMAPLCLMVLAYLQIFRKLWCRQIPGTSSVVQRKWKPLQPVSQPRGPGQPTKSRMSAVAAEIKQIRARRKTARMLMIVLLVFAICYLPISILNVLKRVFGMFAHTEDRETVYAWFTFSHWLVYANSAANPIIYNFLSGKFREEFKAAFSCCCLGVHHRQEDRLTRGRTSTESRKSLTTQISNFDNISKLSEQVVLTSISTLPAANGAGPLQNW
Description: as §1
Human Orexin 2 Receptor Radioligand Binding Studies
as §3, with “HEK293 stably expressing human orexin 2 receptor (Genebank accession number NM_001526) were grown to confluency in DMEM (Hyclone, cat # SH30022), 10% FBS, 1× Pen/Strep, 1× NaPyruvate, 10 mM HEPES, 600 ug/ml G418 media on 150 cm^2 tissue culture plates, washed with 5 mM EDTA in PBS (HyClone Dulbecco's Phosphate Buffered Saline 1× with Calcium and Magnesium, Cat # SH30264.01, hereafter referred to simply as PBS) and scraped into 50 ml tubes. After” for “After”, “sec just” for “sec”, “[^3H]-EMPA” for “[^3H]-(1-(5-(2-fluoro-phenyl)-2-methyl-thiazol-4-yl)-1-((S)-2-(5-phenyl-(1,3,4)oxadiazol-2-ylmethyl)-pyrrolidin-1-yl)-methanone)”

rat orexin 1 receptor = rat orexin 1 receptor (Rattus norvegicus, UniProt P56718); assay: Rat orexin 1 receptor radioligand binding; details: read-out: rOX1 Ki
Description: as §1, §2, §3

[1] = human orexin 1 receptor, averages of 2-20 runs
[2] = human orexin 2 receptor, averages of 2-20 runs
[3] = rat orexin 1 receptor, averages of 2-20 runs

| SMILES | Ki (human orexin 1 receptor; [1]) | Ki (human orexin 2 receptor; [2]) | Ki (rat orexin 1 receptor; [3]) | Ki (human orexin 1 receptor) | Ki (human orexin 2 receptor) | Ki (rat orexin 1 receptor) |
| --- | --- | --- | --- | --- | --- | --- |
| Cc1nc(C(=O)N2CC3CC(Oc4ccc(C(F)(F)F)cn4)C2C3)c(-c2ccc(F)cc2)s1 (racemic) [Example 5, (R/S)-(5-(4-fluorophenyl)-2-methylthiazol-4-yl)(6-((5-(trifluoromethyl)pyridin-2-yl)oxy)-2-azabicyclo[2.2.1]heptan-2-yl)methanone] | 0.018 µM | 0.779 µM | 0.025 µM | – | – | – |
| Cc1cccc(C(=O)N2CC3CCC2C(Nc2cnc(C(F)(F)F)cn2)C3)c1-n1nccn1 (racemic) [Example 256, (R/S)-(3-methyl-2-(2H-1,2,3-triazol-2-yl)phenyl)(6-((5-(trifluoromethyl)pyrazin-2-yl)amino)-2-azabicyclo[2.2.2]octan-2-yl)methanone] | 0.01 µM | 0.348 µM | 0.02 µM | – | – | – |
| O=C(c1cccc(F)c1-c1ncccn1)N1CC2CCC1C(Nc1cnc(C(F)(F)F)cn1)C2 (racemic) [Example 257, (R/S)-(3-fluoro-2-(pyrimidin-2-yl)phenyl)(6-((5-(trifluoromethyl)pyrazin-2-yl)amino)-2-azabicyclo[2.2.2]octan-2-yl)methanone] | 0.024 µM | 0.741 µM | 0.021 µM | – | – | – |
| O=C(c1ccc(F)cc1-c1ncccn1)N1CC2CCC1C(Nc1cnc(C(F)(F)F)cn1)C2 (racemic) [Example 258, (R/S)-(4-fluoro-2-(pyrimidin-2-yl)phenyl)(6-((5-(trifluoromethyl)pyrazin-2-yl)amino)-2-azabicyclo[2.2.2]octan-2-yl)methanone] | 0.017 µM | 2.6 µM | 0.026 µM | – | – | – |
| O=C(c1cccc(F)c1-c1ncccn1)N1C[C@H]2C[C@@H](Oc3ccc(Br)cn3)[C@@H]1C2 [Example 48, ((1S,4R,6R)-6-((5-bromopyridin-2-yl)oxy)-2-azabicyclo[2.2.1]heptan-2-yl)(3-fluoro-2-(pyrimidin-2-yl)phenyl)methanone] | 0.005 µM | 0.903 µM | 0.004 µM | – | – | – |
| O=C(c1ccccc1-n1nccn1)N1C[C@H]2C[C@@H](Oc3ccc(Br)cn3)[C@@H]1C2 [Example 49, (2-(2H-1,2,3-triazol-2-yl)phenyl)((1S,4R,6R)-6-((5-bromopyridin-2-yl)oxy)-2-azabicyclo[2.2.1]heptan-2-yl)methanone] | 0.005 µM | 0.443 µM | – | – | – | – |
| Cc1ccc(-n2nccn2)c(C(=O)N2C[C@H]3C[C@@H](Oc4ccc(Br)cn4)[C@@H]2C3)n1 [Example 50, ((1S,4R,6R)-6-((5-bromopyridin-2-yl)oxy)-2-azabicyclo[2.2.1]heptan-2-yl)(6-methyl-3-(2H-1,2,3-triazol-2-yl)pyridin-2-yl)methanone] | 0.01 µM | 0.578 µM | – | – | – | – |
| O=C(c1cc(F)ccc1-c1ncccn1)N1C[C@H]2C[C@@H](Nc3ccc(C(F)(F)F)cn3)[C@@H]1C2 [Example 58, (5-fluoro-2-(pyrimidin-2-yl)phenyl)((1S,4S,6R)-6-((5-(trifluoromethyl)pyridin-2-yl)amino)-2-azabicyclo[2.2.1]heptan-2-yl)methanone] | 0.003 µM | 0.193 µM | 0.005 µM | – | – | – |
| O=C(c1ccccc1-n1nccn1)N1C[C@H]2C[C@@H](Nc3cnc(C(F)(F)F)cn3)[C@@H]1C2 [Example 59, (2-(2H-1,2,3-triazol-2-yl)phenyl)((1S,4S,6R)-6-((5-(trifluoromethyl)pyrazin-2-yl)amino)-2-azabicyclo[2.2.1]heptan-2-yl)methanone] | 0.007 µM | 0.192 µM | – | – | – | – |
| O=C(c1ccccc1-n1nccn1)N1C[C@H]2C[C@@H](Nc3ncc(C(F)(F)F)cn3)[C@@H]1C2 [Example 60, (2-(2H-1,2,3-triazol-2-yl)phenyl)((1S,4S,6R)-6-((5-(trifluoromethyl)pyrimidin-2-yl)amino)-2-azabicyclo[2.2.1]heptan-2-yl)methanone] | 0.012 µM | 0.617 µM | 0.02 µM | – | – | – |
| Cc1ccc(-n2nccn2)c(C(=O)N2C[C@H]3C[C@@H](Nc4cnc(C(F)(F)F)cn4)[C@@H]2C3)n1 [Example 61, (6-methyl-3-(2H-1,2,3-triazol-2-yl)pyridin-2-yl)((1S,4S,6R)-6-((5-(trifluoromethyl)pyrazin-2-yl)amino)-2-azabicyclo[2.2.1]heptan-2-yl)methanone] | 0.019 µM | 0.248 µM | 0.015 µM | – | – | – |
| Cc1ccc(-n2nccn2)c(C(=O)N2C[C@H]3C[C@@H](Nc4ncc(C(F)(F)F)cn4)[C@@H]2C3)n1 [Example 62, (6-methyl-3-(2H-1,2,3-triazol-2-yl)pyridin-2-yl)((1S,4S,6R)-6-((5-(trifluoromethyl)pyrimidin-2-yl)amino)-2-azabicyclo[2.2.1]heptan-2-yl)methanone] | 0.019 µM | 0.569 µM | 0.028 µM | – | – | – |
| O=C(c1cccc(F)c1-c1ncccn1)N1C[C@H]2C[C@@H](Nc3ccc(C(F)(F)F)cn3)[C@@H]1C2 [Example 66, (3-fluoro-2-(pyrimidin-2-yl)phenyl)((1S,4S,6R)-6-((5-(trifluoromethyl)pyridin-2-yl)amino)-2-azabicyclo[2.2.1]heptan-2-yl)methanone] | 0.005 µM | 0.181 µM | 0.002 µM | – | – | – |
| O=C(c1cccc(F)c1-c1ncccn1)N1C[C@H]2C[C@@H](Nc3cnc(C(F)(F)F)cn3)[C@@H]1C2 [Example 67, (3-fluoro-2-(pyrimidin-2-yl)phenyl)((1S,4S,6R)-6-((5-(trifluoromethyl)pyrazin-2-yl)amino)-2-azabicyclo[2.2.1]heptan-2-yl)methanone] | 0.007 µM | 0.264 µM | 0.007 µM | – | – | – |
| O=C(c1cccc(F)c1-c1ncccn1)N1C[C@H]2C[C@@H](Nc3ncc(C(F)(F)F)cn3)[C@@H]1C2 [Example 68, (3-fluoro-2-(pyrimidin-2-yl)phenyl)((1S,4S,6R)-6-((5-(trifluoromethyl)pyrimidin-2-yl)amino)-2-azabicyclo[2.2.1]heptan-2-yl)methanone] | 0.008 µM | 0.612 µM | 0.007 µM | – | – | – |
| O=C(c1cccc(F)c1-c1ncccn1)N1C[C@@H]2CC[C@H]1[C@H](Oc1cnc(C(F)(F)F)cn1)C2 [Example 74, (3-fluoro-2-(pyrimidin-2-yl)phenyl)((1S,4R,6R)-6-((5-(trifluoromethyl)pyrazin-2-yl)oxy)-2-azabicyclo[2.2.2]octan-2-yl)methanone] | 0.016 µM | 1.8 µM | 0.016 µM | – | – | – |
| Cc1ccc(-n2nccn2)c(C(=O)N2C[C@@H]3CC[C@H]2[C@H](Oc2ccc(C(F)(F)F)cn2)C3)n1 [Example 76, (6-methyl-3-(2H-1,2,3-triazol-2-yl)pyridin-2-yl)((1S,4R,6R)-6-((5-(trifluoromethyl)pyridin-2-yl)oxy)-2-azabicyclo[2.2.2]octan-2-yl)methanone] | – | – | – | 0.003 µM | 0.211 µM | 0.004 µM |
| Cc1ccc(-n2nccn2)c(C(=O)N2C[C@@H]3CC[C@H]2[C@H](Oc2cnc(C(F)(F)F)cn2)C3)n1 [Example 77, (6-methyl-3-(2H-1,2,3-triazol-2-yl)pyridin-2-yl)((1S,4R,6R)-6-((5-(trifluoromethyl)pyrazin-2-yl)oxy)-2-azabicyclo[2.2.2]octan-2-yl)methanone] | 0.013 µM | 1.7 µM | 0.009 µM | – | – | – |
| O=C(c1cccnc1-n1nccn1)N1C[C@H]2C[C@@H](Oc3ccc(C(F)(F)F)cn3)[C@@H]1C2 [Example 87, (2-(2H-1,2,3-triazol-2-yl)pyridin-3-yl)((1S,4R,6R)-6-((5-(trifluoromethyl)pyridin-2-yl)oxy)-2-azabicyclo[2.2.1]heptan-2-yl)methanone] | 0.211 µM | > 10 µM | 0.156 µM | – | – | – |
